Earlier results, collected in patent publication US20070044813A1, “Use of snuff for treatment of house dust mite allergy and/or cigarette smoke allergy” (priority 2005, published 2007).
Structures can show the parent of a compound that is named as a salt.

Tested on: symptoms of house dust mite allergy and cigarette smoke allergy
Settings: conventional medicaments; control the symptoms only partly

## Clc1ccc2c(c1)CCc1cccnc1C2=C1CCNCC1 [desloratadine]
  alleviation of the symptoms: around 40%

## CC(C)(C(=O)O)c1ccc(C(O)CCCN2CCC(C(O)(c3ccccc3)c3ccccc3)CC2)cc1 (centres unmarked) [fexofenadine hydrochloride]
  alleviation of the symptoms: around 40%
